{"source": "ChEMBL document CHEMBL6092168", "about": "“Identification of novel indolinone derivatives as CTSC inhibitors to treat inflammatory bowel disease by modulating inflammatory factors” (Eur J Med Chem, 2024)", "key": {"Dipeptidyl peptidase 1": {"biological_target": "Dipeptidyl peptidase 1 (Homo sapiens, UniProt P53634)", "sequence (P53634 25-134 limits assumed)": "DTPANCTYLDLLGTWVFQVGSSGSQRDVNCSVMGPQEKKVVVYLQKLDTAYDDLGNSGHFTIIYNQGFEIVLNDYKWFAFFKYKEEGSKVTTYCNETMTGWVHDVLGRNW", "sequence (P53634 231-394 limits assumed)": "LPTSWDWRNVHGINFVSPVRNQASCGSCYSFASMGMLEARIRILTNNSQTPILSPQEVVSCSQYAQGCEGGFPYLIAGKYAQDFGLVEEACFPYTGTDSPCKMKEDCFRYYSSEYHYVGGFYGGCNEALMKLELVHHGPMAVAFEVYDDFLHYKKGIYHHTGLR", "sequence (P53634 395-463 limits assumed)": "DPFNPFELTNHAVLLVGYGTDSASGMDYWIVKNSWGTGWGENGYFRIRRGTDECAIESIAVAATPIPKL", "experiment": "Inhibition of human recombinant Cathepsin C using Gly-Phe-AFC as substrate preincubated for 3 hrs followed by substrate addition and measured after 1 hr by fluorescence based multifunctional microplate reader analysis"}, "[1]": {"biological_target": "T1, Cathepsin G (Homo sapiens) (UniProt P08311)", "T1 sequence (whole entry)": "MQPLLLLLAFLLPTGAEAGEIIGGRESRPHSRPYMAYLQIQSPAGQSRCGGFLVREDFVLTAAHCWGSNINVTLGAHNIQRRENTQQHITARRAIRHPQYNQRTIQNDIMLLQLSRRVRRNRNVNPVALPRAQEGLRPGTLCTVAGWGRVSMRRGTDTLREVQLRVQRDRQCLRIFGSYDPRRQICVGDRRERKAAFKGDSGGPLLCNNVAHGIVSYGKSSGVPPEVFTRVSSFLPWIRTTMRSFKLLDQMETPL", "experiment": "Inhibition of Cathepsin G in human U-937 cells using N-Suc-Ala-Ala-Pro-Phe-pNA as substrate at 10 uM incubated for 5 days by […] based microplate reader analysis relative to control", "assay_type": "cell-based", "conditions": "time 5.0 day"}, "[2]": {"biological_target": "T2, Neutrophil elastase (Mus musculus) (UniProt Q3UP87)", "T2 sequence (whole entry)": "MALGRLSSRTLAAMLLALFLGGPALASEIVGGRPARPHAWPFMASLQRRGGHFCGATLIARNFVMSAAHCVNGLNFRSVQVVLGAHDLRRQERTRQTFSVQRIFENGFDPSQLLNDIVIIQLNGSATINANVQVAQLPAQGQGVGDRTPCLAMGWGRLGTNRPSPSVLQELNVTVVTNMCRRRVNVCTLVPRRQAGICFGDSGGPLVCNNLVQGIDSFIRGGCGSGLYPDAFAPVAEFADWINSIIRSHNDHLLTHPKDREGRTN", "experiment": "Induction of neutrophil elastase degradation in C57BL/6 mouse bone marrow cells assessed as residual activity at 10 uM incubated for 48 hrs by Western blot analysis relative to control", "assay_type": "cell-based", "conditions": "Bone marrow cell"}, "[3]": {"biological_target": "T3, Cathepsin G (Mus musculus) (UniProt P28293)", "T3 sequence (whole entry)": "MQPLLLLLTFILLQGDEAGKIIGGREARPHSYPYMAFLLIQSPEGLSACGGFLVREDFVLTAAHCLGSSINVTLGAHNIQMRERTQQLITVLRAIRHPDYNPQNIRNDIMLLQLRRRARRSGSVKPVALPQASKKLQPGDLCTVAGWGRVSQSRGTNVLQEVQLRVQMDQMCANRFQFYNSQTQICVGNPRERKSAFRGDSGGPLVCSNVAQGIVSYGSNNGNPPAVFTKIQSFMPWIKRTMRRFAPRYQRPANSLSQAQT", "experiment": "Induction of Cathepsin G degradation in C57BL/6 mouse bone marrow cells assessed as residual activity at 10 uM incubated for 48 hrs by Western blot analysis relative to control", "assay_type": "cell-based", "conditions": "Bone marrow cell"}, "[4]": {"experiment": "Half life in male Sprague-Dawley rat at 2 mg/kg, iv measured at 5 to 1440 mins by LC-MS/MS analysis", "assay_type": "ADME, organism-based", "conditions": "in vivo, time 5-1440 min"}, "[5]": {"experiment": "MRT in male Sprague-Dawley rat at 10 mg/kg, po measured at 5 to 1440 mins by LC-MS/MS analysis", "assay_type": "ADME, organism-based", "conditions": "in vivo, time 5-1440 min"}, "[6]": {"biological_target": "T4, Dipeptidyl peptidase 1 (Mus musculus) (UniProt P97821)", "T4 sequence (whole entry)": "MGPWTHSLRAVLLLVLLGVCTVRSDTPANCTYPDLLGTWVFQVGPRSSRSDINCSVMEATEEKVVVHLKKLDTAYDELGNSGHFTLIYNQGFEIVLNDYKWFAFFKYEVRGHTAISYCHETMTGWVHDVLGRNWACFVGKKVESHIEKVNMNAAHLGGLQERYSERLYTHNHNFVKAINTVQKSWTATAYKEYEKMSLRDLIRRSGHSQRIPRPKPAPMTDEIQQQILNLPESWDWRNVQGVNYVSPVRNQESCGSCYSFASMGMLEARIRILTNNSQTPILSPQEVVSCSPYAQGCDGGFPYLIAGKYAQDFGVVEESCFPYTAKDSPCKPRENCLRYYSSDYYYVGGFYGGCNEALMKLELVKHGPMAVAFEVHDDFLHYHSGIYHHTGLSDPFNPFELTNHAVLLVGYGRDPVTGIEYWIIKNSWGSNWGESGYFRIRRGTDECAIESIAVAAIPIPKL", "experiment": "In vivo inhibition of Cathepsin C in C57BL/6 mouse assessed as reduction in cathepsin C activity in blood at 30 mg/kg, po administered once daily for 6 days by fluorescence based microplate reader relative to control", "assay_type": "functional, organism-based", "conditions": "time 6.0 day"}, "[7]": {"experiment": "Acute toxicity in ICR mouse assessed as liver pathological change at 1500 mg/kg, po administered daily for 7 days by H and E staining based analysis", "assay_type": "organism-based", "conditions": "in vivo, 168 h, time 7 day"}, "[8]": {"experiment": "Acute toxicity in ICR mouse assessed as spleen pathological change at 1500 mg/kg, po administered daily for 7 days by H and E staining based analysis", "assay_type": "organism-based", "conditions": "in vivo, 168 h, time 7 day"}, "Mus musculus [9]": {"tested_on": "Mus musculus", "experiment": "Anti-inflammatory activity in DSS-induced ulcerative colitis male C57BL/6 mouse model assessed as reduction in disease activity index (DAI) score at 60 mg/kg administered via gavage for 10 days", "assay_type": "functional, organism-based", "conditions": "time 10.0 day"}, "Mus musculus [10]": {"tested_on": "Mus musculus", "experiment": "Anti-inflammatory activity in DSS-induced ulcerative colitis male C57BL/6 mouse model assessed as reduction in crypt loss in colon at 60 mg/kg administered via gavage for 10 days by H and E staining based analysis", "assay_type": "functional, organism-based", "conditions": "time 10.0 day"}, "Mus musculus [11]": {"tested_on": "Mus musculus", "experiment": "Anti-inflammatory activity in DSS-induced ulcerative colitis male C57BL/6 mouse model assessed as reduction in Cathepsin C level in colon at 60 mg/kg administered via gavage for 10 days", "assay_type": "functional", "parameters": "scale not given: the % may be the effect or the level left", "conditions": "time 10 day"}, "Mus musculus [12]": {"tested_on": "Mus musculus", "experiment": "Anti-inflammatory activity in DSS-induced ulcerative colitis male C57BL/6 mouse model assessed as reduction in neutrophil elastase level in colon at 60 mg/kg administered via gavage for 10 days relative to control", "assay_type": "functional", "parameters": "scale not given: the % may be the effect or the level left", "conditions": "time 10 day"}, "Mus musculus [13]": {"tested_on": "Mus musculus", "experiment": "Anti-inflammatory activity in DSS-induced ulcerative colitis male C57BL/6 mouse model assessed as reduction in Cathepsin C level in serum at 15 to 30 mg/kg administered via gavage for 10 days", "assay_type": "functional, organism-based", "conditions": "dose 15-30 mg/kg, time 10.0 day"}, "[14]": {"biological_target": "T2, Neutrophil elastase (Mus musculus)", "experiment": "Induction of neutrophil elastase degradation in C57BL/6 mouse bone marrow cells at 10 uM incubated for 24 hrs by Western blot analysis", "assay_type": "cell-based", "conditions": "Bone marrow cell"}, "[15]": {"biological_target": "T5, Myeloblastin (Mus musculus) (UniProt Q61096)", "T5 sequence (whole entry)": "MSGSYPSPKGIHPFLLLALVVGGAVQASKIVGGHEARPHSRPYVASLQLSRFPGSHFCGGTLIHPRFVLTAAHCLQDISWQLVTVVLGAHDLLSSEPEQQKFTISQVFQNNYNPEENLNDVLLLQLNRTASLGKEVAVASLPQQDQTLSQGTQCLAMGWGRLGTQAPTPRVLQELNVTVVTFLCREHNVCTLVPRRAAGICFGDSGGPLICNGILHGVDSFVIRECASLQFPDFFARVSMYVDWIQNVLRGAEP", "experiment": "Induction of proteinase 3 degradation in C57BL/6 mouse bone marrow cells at 10 uM incubated for 24 hrs by Western blot analysis", "assay_type": "cell-based", "conditions": "Bone marrow cell"}, "[16]": {"biological_target": "T3, Cathepsin G (Mus musculus)", "experiment": "In vivo inhibition of Cathepsin G in C57BL/6 mouse assessed as reduction in cathepsin G activity in bone marrow administered orally once daily for 6 days by fluorescence based microplate reader", "assay_type": "functional, organism-based", "conditions": "dose 5-30 mg/kg, route po, time 6.0 day"}}, "note": "The source made the active and inactive calls. The rule behind the calls is not given here.", "data": [{"molecule": "O=C1Nc2c(cccc2-c2ccc(NC3CCOCC3)cc2)/C1=C/c1ccnc2ccccc12", "values": [{"measurement": "IC50", "setting": "Dipeptidyl peptidase 1", "result": 0.0843, "unit": "µM"}, {"measurement": "inhibition", "setting": "[1]", "result": 17.2, "unit": "%"}, {"measurement": "Activity", "setting": "[2]", "result": 6.65, "unit": "%"}, {"measurement": "Activity", "setting": "[3]", "result": 17.3, "unit": "%"}, {"measurement": "t1/2", "setting": "[4]", "result": 2.26, "unit": "h"}, {"measurement": "MRT", "setting": "[5]", "result": 2.98, "unit": "h"}, {"measurement": "inhibition", "setting": "[6]", "result": 27.2, "unit": "%"}, {"measurement": "Activity", "setting": "[7]", "result": "Non-toxic"}, {"measurement": "Activity", "setting": "[8]", "result": "Non-toxic"}, {"measurement": "Activity", "setting": "Mus musculus [9]", "result": "Active"}, {"measurement": "Activity", "setting": "Mus musculus [10]", "result": "Active"}, {"measurement": "Activity", "setting": "Mus musculus [11]", "result": 45, "unit": "%"}, {"measurement": "Activity", "setting": "Mus musculus [12]", "result": 50, "unit": "%"}, {"measurement": "Activity", "setting": "Mus musculus [13]", "result": "inactive"}, {"measurement": "Activity", "setting": "[14]", "result": "Active"}, {"measurement": "Activity", "setting": "[15]", "result": "Active"}, {"measurement": "inhibition", "setting": "[16]", "result": "Dose-dependent-effect"}]}]}
